# Test results published in patent publication US4138491A, “Method for treating diabetes” (Daiichi Seiyaku Co., Ltd., priority 1976, dated 1979).
# Experiments:
# blood sugar level [1] = experiment: Glucose tolerance test in normal rats (oral compound, glucose load 1 hour later); format: in vivo, normal rat; conditions: for Glucose Tolerance Improving Activity / Blood Glucose Level, 0 min / Blood Glucose Level, 15 min / Blood Glucose Level, 30 min / Blood Glucose Level, 60 min / Blood Glucose Level, 90 min / Blood Glucose Level, before glucose load (-60 min.): glucose 2 g/kg; for Glucose Tolerance Improving Activity: sum of increments at 15, 30, 60, 90 min vs control, 100 = no improvement
# Procedure: (§1) One index for the treatment of diabetes is to improve this glucose tolerance. The compound of the present invention was orally administered to normal rats, Streptozotocin-induced mildly diabetic rats and AYKK-mice, and thereafter glucose was administered intraperitoneally 1 hour later, and the glucose tolerance was examined. […] Further, a lowering of blood sugar in the glucose tolerance test using normal rats was examined with the passage of time, and the results obtained are given in Table 1 below.
# (§2) A sample aqueous solution or suspension was orally administered to the test animals which had been fasted for 24 hours and one hour later glucose was intraperitoneally or subcutaneously administered to the test animals. Thereafter, blood was sampled from the tail vein with the passage of time in order to determine the blood sugar level by the glucose-oxidase method.
# blood sugar level [2] = experiment: Blood sugar lowering activity, fasted rat; format: in vivo
# Procedure: (§3) The compounds of the present invention were orally administered to normal rats, mice, dogs and hereditary diabetic mice(AYKK-mice), and the blood sugar lowering activity was examined.
# (§4) Test animals which were used included animals which had been fasted for 24 hours to achieve an empty stomach, and animals which had been fed to achieve a full stomach without any restriction of diet. A sample aqueous solution or suspension was orally administered, and blood was sampled with the passage of time from the tail vein or the cephalic vein in order to determine the level of blood sugar by the glucose-oxidase method.
# blood sugar level [3] = experiment: Blood sugar lowering activity, fed mouse; format: in vivo
# Procedure: as §3, §4
# blood sugar level [4] = experiment: Blood sugar lowering activity, fasted beagle; format: in vivo, beagle dog; conditions: 25 mg/kg PO
# Procedure: as §3, §4
# blood sugar level [5] = experiment: Blood sugar lowering activity, fed AγKK (AYKK) mouse, hereditary diabetic; format: in vivo; conditions: for Blood Sugar Level (control = 100), 1 Hr / Blood Sugar Level (control = 100), 2 Hrs / Blood Sugar Level (control = 100), 3 Hrs / Blood Sugar Level (control = 100), 5 Hrs: fed AγKK mouse
# Procedure: as §3, §4
# blood sugar level [6] = experiment: Glucose tolerance test in AYKK mice; format: in vivo, AYKK mouse; conditions: glucose 1 g/kg, sum of increments at 15, 30, 60, 90 min vs control, 100 = no improvement
# Procedure: as §1, §2
# *5AYKK-mouse was obtained by mating a yellow mouse having symptoms of […]
# [7] = test system: blood platelet aggregation induced by collagen in rat platelet rich plasma; experiment: Blood platelet aggregation inhibiting activity (collagen induced, in vitro); format: cell-based; conditions: read-out: Platelet Aggregation Inhibition Activity, ID50
# Procedure: It is generally said that blood platelet aggregability is accelerated in a diabetes patient and that this secondarily causes blood vessel disorders. […] Thus, based on this the compounds of the present invention are expected to be useful in preventing and improving the secondary vasular lesions of diabetes mellitus.
# Citrated rat blood was centrifuged in order to obtain platelet rich plasma, and to 0.4 ml of this plasma was added 50 μl of sample solution. To the resulting solution was added 50 μl of collagen suspension under stirring, and platelet aggregation reaction was determined according to the method of Born [Nature, Vol. 194, pp. 927 (1962)]. The concentration of the sample (ID50) which inhibits 50% of the aggregation reaction of the control without the test sample added is shown in Table 6 below.
# Acute toxicity (rat) = conditions: in vivo, read-out: Acute Toxicity (rat) ID50
# serum lactate level = experiment: Influence on serum lactate level, repeated administration for 4 days; format: in vivo, normal rat
# Procedure: The biguanide drugs heretofore used as a treatment for diabetes are said undesirably to cause acidosis due to an increase of serum lactate level when such drugs are repeatedly administered. The compounds of the present invention were repeatedly administered for 4 days to normal rats and the serum lactate level was determined every day to compare such with the administration of phenformine which is one example of a biguanide drug.
# Compound A was repeatedly administered for 4 days to normal rats in a dosage of 200 mg/kg/day, and blood was sampled with the passage of time in order to determine the serum lactate level.
# blood sugar level [8] = experiment: Glucose tolerance test in streptozotocin-induced mildly diabetic rats; format: in vivo, rat (Wistar strain); conditions: 20 mg/kg PO; glucose 1 g/kg; sum of increments at 15, 30, 60, 90 min vs control; 100 = no improvement
# Procedure: as §1, §2
# *4The streptozotocin-induced mildly diabetic rats were produced by […]
# blood insulin [9] = experiment: Insulin releasing action, fed rats; format: in vivo, rat; conditions: 50 mg/kg iv
# Procedure: (§5) Among the test animals fed rats were anesthetized by administration of pentobarbital (40 mg/kg, ip), and administered, intravenously with an isotonic sodium chloride solution of Compound A. An aqueous solution of the sample was orally administered to fed mice. In both cases blood was sampled from the tail vein with the passage of time, and the blood insulin was determined by the radioimmunoassay method of Morgen et al [Diabetes, Vol. 12, pp 115 (1963)]. At the same time blood sugar was also determined. […] The amount of insulin released in Table 4 was obtained by determining the difference between the blood insulin level at 5 points (5, 10, 20, 30, 40 minutes) during a 40 minute period after administration of the sample in the case of rats or 3 points (0.5, 1.0, 2.0 hours) during a 2 hour period after administration of the sample in the case of mice and the blood insulin level at 0 minute just before administration of the sample and then by summing up these differences.
# blood insulin [10] = experiment: Insulin releasing action, fed mice; format: in vivo, mouse
# Procedure: as §5
compound,measurement,setting,value
"c1ccc(C(CC2=NCCN2)c2ccccn2)cc1 (stereo not shown) [Compound B, 2-[2-phenyl-2-(2-pyridyl)]ethylimidazoline]",Glucose Tolerance Improving Activity,blood sugar level [1]; 10 mg/kg PO,22.0%
same,"Blood Glucose Level, 0 min",blood sugar level [1]; 10 mg/kg,74 ± 3 mg/dL
same,"Blood Glucose Level, 15 min",blood sugar level [1]; 10 mg/kg,91 ± 9 mg/dL
same,"Blood Glucose Level, 30 min",blood sugar level [1]; 10 mg/kg,91 ± 5 mg/dL
same,"Blood Glucose Level, 60 min",blood sugar level [1]; 10 mg/kg,79 ± 4 mg/dL
same,"Blood Glucose Level, 90 min",blood sugar level [1]; 10 mg/kg,68 ± 5 mg/dL
same,"Blood Glucose Level, before glucose load (-60 min.)",blood sugar level [1]; 10 mg/kg,90 ± 2 mg/dL
same,blood sugar level maintained after glucose load,"blood sugar level [1]; normal rats, Table 1, in words",maintains the blood sugar level in the range of the fasting blood sugar level
same,rise in blood sugar level due to the glucose load,"blood sugar level [1]; normal rats, Table 1, in words",scarcely any rise in blood sugar level
same,"Blood Sugar Level (control = 100), 1 Hr",blood sugar level [2]; 10 mg/kg PO,71%
same,"Blood Sugar Level (control = 100), 2 Hrs",blood sugar level [2]; 10 mg/kg PO,67%
same,"Blood Sugar Level (control = 100), 3 Hrs",blood sugar level [2]; 10 mg/kg PO,58%
same,"Blood Sugar Level (control = 100), 5 Hrs",blood sugar level [2]; 10 mg/kg PO,73%
same,"Blood Sugar Level (control = 100), 1 Hr",blood sugar level [2]; 25 mg/kg PO,83%
same,"Blood Sugar Level (control = 100), 2 Hrs",blood sugar level [2]; 25 mg/kg PO,68%
same,"Blood Sugar Level (control = 100), 3 Hrs",blood sugar level [2]; 25 mg/kg PO,68%
same,"Blood Sugar Level (control = 100), 5 Hrs",blood sugar level [2]; 25 mg/kg PO,76%
same,"Blood Sugar Level (control = 100), 1 Hr",blood sugar level [3]; 25 mg/kg PO,77%
same,"Blood Sugar Level (control = 100), 2 Hrs",blood sugar level [3]; 25 mg/kg PO,68%
same,"Blood Sugar Level (control = 100), 3 Hrs",blood sugar level [3]; 25 mg/kg PO,78%
same,"Blood Sugar Level (control = 100), 5 Hrs",blood sugar level [3]; 25 mg/kg PO,86%
same,"Blood Sugar Level (control = 100), 1 Hr",blood sugar level [4]; 1 h,76%
same,"Blood Sugar Level (control = 100), 2 Hrs",blood sugar level [4]; 2 h,58%
same,"Blood Sugar Level (control = 100), 3 Hrs",blood sugar level [4]; 3 h,70%
same,"Blood Sugar Level (control = 100), 5 Hrs",blood sugar level [4]; 5 h,71%
same,"Blood Sugar Level (control = 100), 1 Hr",blood sugar level [5]; 25 mg/kg PO,77%
same,"Blood Sugar Level (control = 100), 2 Hrs",blood sugar level [5]; 25 mg/kg PO,75%
same,"Blood Sugar Level (control = 100), 3 Hrs",blood sugar level [5]; 25 mg/kg PO,72%
same,"Blood Sugar Level (control = 100), 5 Hrs",blood sugar level [5]; 25 mg/kg PO,78%
same,Glucose Tolerance Improving Activity,blood sugar level [6]; 25 mg/kg PO,62.7%
same,IC50,[7],300 µM
same,LD50,Acute toxicity (rat),867 mg/kg
[H]/N=C(/N)N/C(=N/[H])NCCc1ccccc1 [Phenformin],"Serum Lactate Level, 0 Day","serum lactate level; 0 Day, Compound A 200 mg/kg/day (phenformin dose not given)",1.061±0.099 μ mol/ml
same,"Serum Lactate Level, After 1 Day","serum lactate level; After 1 Day, Compound A 200 mg/kg/day (phenformin dose not given)",2.086±0.066 μ mol/ml
same,"Serum Lactate Level, After 4 Days","serum lactate level; After 4 Days, Compound A 200 mg/kg/day (phenformin dose not given)",3.009±0.641 μ mol/ml
same,increase in serum lactate level,"serum lactate level; repeated administration for 4 days, normal rats, in words",remarkable increase in serum lactate level
"CCCCNC(=O)NS(=O)(=O)c1ccc(C)cc1 [Tolbutamide, reference compound]",Glucose Tolerance Improving Activity,blood sugar level [1]; 20 mg/kg PO,64.5%
same,"Blood Glucose Level, 0 min",blood sugar level [1]; 20 mg/kg,79 ± 2 mg/dL
same,"Blood Glucose Level, 15 min",blood sugar level [1]; 20 mg/kg,121 ± 5 mg/dL
same,"Blood Glucose Level, 30 min",blood sugar level [1]; 20 mg/kg,114 ± 5 mg/dL
same,"Blood Glucose Level, 60 min",blood sugar level [1]; 20 mg/kg,98 ± 5 mg/dL
same,"Blood Glucose Level, 90 min",blood sugar level [1]; 20 mg/kg,90 ± 4 mg/dL
same,"Blood Glucose Level, before glucose load (-60 min.)",blood sugar level [1]; 20 mg/kg,80 ± 2 mg/dL
same,"Blood Sugar Level (control = 100), 1 Hr",blood sugar level [2]; 10 mg/kg PO,96%
same,"Blood Sugar Level (control = 100), 2 Hrs",blood sugar level [2]; 10 mg/kg PO,89%
same,"Blood Sugar Level (control = 100), 3 Hrs",blood sugar level [2]; 10 mg/kg PO,92%
same,"Blood Sugar Level (control = 100), 5 Hrs",blood sugar level [2]; 10 mg/kg PO,91%
same,"Blood Sugar Level (control = 100), 1 Hr",blood sugar level [2]; 25 mg/kg PO,90%
same,"Blood Sugar Level (control = 100), 2 Hrs",blood sugar level [2]; 25 mg/kg PO,80%
same,"Blood Sugar Level (control = 100), 3 Hrs",blood sugar level [2]; 25 mg/kg PO,76%
same,"Blood Sugar Level (control = 100), 5 Hrs",blood sugar level [2]; 25 mg/kg PO,82%
same,"Blood Sugar Level (control = 100), 1 Hr",blood sugar level [3]; 50 mg/kg PO,95%
same,"Blood Sugar Level (control = 100), 2 Hrs",blood sugar level [3]; 50 mg/kg PO,92%
same,"Blood Sugar Level (control = 100), 3 Hrs",blood sugar level [3]; 50 mg/kg PO,74%
same,"Blood Sugar Level (control = 100), 5 Hrs",blood sugar level [3]; 50 mg/kg PO,96%
same,"Blood Sugar Level (control = 100), 1 Hr",blood sugar level [5]; 50 mg/kg PO,94%
same,"Blood Sugar Level (control = 100), 2 Hrs",blood sugar level [5]; 50 mg/kg PO,86%
same,"Blood Sugar Level (control = 100), 3 Hrs",blood sugar level [5]; 50 mg/kg PO,86%
same,"Blood Sugar Level (control = 100), 5 Hrs",blood sugar level [5]; 50 mg/kg PO,92%
same,effectiveness on AYKK-mice (blood sugar lowering),"blood sugar level [5]; oral, AYKK-mice, in words",uneffective
same,Glucose Tolerance Improving Activity,blood sugar level [8],67.4%
same,Glucose Tolerance Improving Activity,blood sugar level [6]; 50 mg/kg PO,69.6%
same,Blood Sugar Level,"blood insulin [9]; after 90 minutes, control = 100",56%
same,Amount of Insulin Released,"blood insulin [9]; sum of differences at 5, 10, 20, 30, 40 min",189±26 μunit/ml
same,Blood Sugar Level,"blood insulin [10]; fed mice, 50 mg/kg po, after 2 hours, control = 100",95.7%
same,Amount of Insulin Released,"blood insulin [10]; fed mice, 50 mg/kg po, sum of differences at 0.5, 1.0, 2.0 hours",-2.2±3.3 μunit/ml
same,insulin releasing action in mice,"blood insulin [10]; mice, in words",little action on insulin release
